Broadly, the Kd is a measure of binding affinity in units of concentration.

One assay concerns the target T1, TDRD3_Y566W (Homo sapiens, UniProt Q9H7E2, Y566W).
T1 construct: TDRD3 (aa 554–611); His (N, cleaved yes); made in house; host or cells: E. coli BL21 (DE3) Codon plus RIL
Briefly: ITC binding to TDRD3 mutant Y566W. The conditions noted are these: Supplementary Fig. 11b, iTC-200; read-out: Kd, ITC binding curve, TDRD3_Y566W. The source says:
(§1) The coding DNA fragments of following Tudor domains were cloned into pET28-MHL vector: SMN (aa 82–147), UHRF1 (aa 126–285), SMNDC1 (aa 53–130), TDRD3 (aa 554–611), SND1 (aa 650–910), TDRD2 (aa 327–420), FXR1 (aa 2–132), PHF1 (aa 28–87), SGF29 (aa 115–293), JMJD2A (aa 897–1101), 53BP1 (aa 1483–1606), SETDB1 (aa 190–410), LBR (aa 1–67), ZGPAT (aa 120–271). The coding regions of chromodomain of CBX7 (aa 8–62), PWWP domain of DNMT3A (aa 275–417), WD40 repeats of WDR5 (aa 24–334) and CW domain of ZCWPW2 (aa 21–78) were also subcloned into pET28-MHL vector to generate N-terminally His-tagged fusion protein. The MBT repeats of L3MBTL1 (aa 200–522) and L3MBTL2 (aa 170–625) were subcloned into pET28GST-LIC vector to generate N-terminally GST-His-tagged fusion protein. All the plasmids were generated by ligase independent cloning (Vazyme Biotech, C112 or ABclonal Technology, RK21020). […] The molecular weight of all protein samples was measured by mass spectrometry.
(§2) For the ITC measurement, the concentrated proteins were diluted into 20 mM Tris-HCl, pH 7.5, 150 mM NaCl (ITC buffer); the lyophilized compounds were dissolved in the same buffer, and the pH value was adjusted by adding 2 M NaOH or 2 M HCl. […] Compound concentrations were calculated from the mass and the volume of the solvent. […]

A further assay concerns the target T2, 53BP1 (Homo sapiens, UniProt Q12888).
T2 construct: 53BP1 (aa 1483–1606); His (N, cleaved yes); made in house; host or cells: E. coli BL21 (DE3) Codon plus RIL
As to the kind of experiment: ITC binding to 53BP1. The following applies: Fig. 1c.
Source text: as §1, §2

In a further assay the target is T3, L3MBTL2 (MBT) (Homo sapiens, UniProt Q969R5).
T3 construct: L3MBTL2 (aa 170–625); GST-His (N, cleaved yes); made in house; host or cells: E. coli BL21 (DE3) Codon plus RIL
T3 sequence (Q969R5 170-625): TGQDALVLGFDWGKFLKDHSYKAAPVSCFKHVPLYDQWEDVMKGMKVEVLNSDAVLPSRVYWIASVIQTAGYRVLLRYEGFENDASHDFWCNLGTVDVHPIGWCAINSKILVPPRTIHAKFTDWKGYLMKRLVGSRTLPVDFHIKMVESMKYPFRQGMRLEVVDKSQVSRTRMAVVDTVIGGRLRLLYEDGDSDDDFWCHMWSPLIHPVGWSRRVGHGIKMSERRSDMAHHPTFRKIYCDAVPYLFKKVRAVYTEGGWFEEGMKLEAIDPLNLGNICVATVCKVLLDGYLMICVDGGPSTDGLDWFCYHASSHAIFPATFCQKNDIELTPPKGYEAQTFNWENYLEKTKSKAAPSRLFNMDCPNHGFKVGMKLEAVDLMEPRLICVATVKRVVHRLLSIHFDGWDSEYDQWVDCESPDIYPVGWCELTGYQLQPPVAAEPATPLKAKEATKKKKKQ
As to the kind of experiment: ITC binding to MBT repeats of L3MBTL2. The conditions noted are these: Fig. 1c.
Source text: as §1, §2

The next assay deals with T4, LBR (Homo sapiens, UniProt Q14739).
T4 construct: LBR (aa 1–67); His (N, cleaved yes); made in house; host or cells: E. coli BL21 (DE3) Codon plus RIL
T4 sequence (Q14739 1-67): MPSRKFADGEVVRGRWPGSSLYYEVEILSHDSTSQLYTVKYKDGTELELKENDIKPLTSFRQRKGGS
Briefly: ITC binding to LBR. The conditions noted are these: Fig. 1c.
Source text: as §1, §2

A further assay deals with T5, SMN_Y130A (Homo sapiens, UniProt Q16637, Y130A).
T5 construct: cloned into pET28-MHL vector: SMN (aa 82–147); His (N, cleaved yes); made in house; host or cells: E. coli BL21 (DE3) Codon plus RIL
T5 sequence (Q16637 82-147 Y130A): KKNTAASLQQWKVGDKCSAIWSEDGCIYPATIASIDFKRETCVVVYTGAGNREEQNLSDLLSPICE
Briefly: ITC binding to SMN Tudor mutant Y130A. The conditions noted are these: Fig. 3d.
Source text: as §1, §2

Some results are limits rather than exact numbers.

T1 sequence (Q9H7E2 554-611 Y566W): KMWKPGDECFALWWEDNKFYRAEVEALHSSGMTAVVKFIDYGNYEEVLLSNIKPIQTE
T2 sequence (Q12888 1483-1606): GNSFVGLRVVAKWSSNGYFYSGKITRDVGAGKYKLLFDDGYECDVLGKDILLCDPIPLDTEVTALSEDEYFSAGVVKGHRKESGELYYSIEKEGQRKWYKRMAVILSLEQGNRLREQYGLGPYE

Consider `Cn1c2c(c(=N)c3c1CCC3)CCC2` [Compound 1, 4-methyl-2,3,4,5,6,7-hexahydrodicyclopenta[b,e]pyridin-8(1H)-imine], for which the Kd at TDRD3_Y566W was 3.8 ± 0.4 µM; at 53BP1 it was more than 244 µM; at L3MBTL2 (MBT), more than 244 µM; at LBR, more than 244 µM; at SMN_Y130A, more than 244 µM.

Values taken from article PMC9481570, “A small molecule antagonist of SMN disrupts the interaction between SMN and RNAP II” (Nature Communications, 2022).
